Laboratory results from patent publication US8058256B2, “Polymeric carrier for delivery of small interfering RNA” (University of Utah Research Foundation, priority 2006, dated 2011).

Tested on: VEGF expression in CT-26 colon adenocarcinoma cells
Experiment: VEGF silencing in vitro, mouse VEGF ELISA of cell supernatants
Format: cell-based
Details: bPEI carrier; N/P ratio of 10; CT-26 cells; 0.7 μg siRNA/well
Protocol: To evaluate the biological significance of these systems, the inhibitory activity of siRNA against the expression of VEGF in CT-26 colon adenocarcinoma cells was investigated.
CT-26 cells were seeded in 24-well tissue culture plates at 8×10^4 cells per well in 10% FBS containing RPMI 1640 medium. Cells achieved 80% confluency within 24 h, after which they were transfected with cationic substance/siRNA complexes prepared at N/P ratios ranging from 5 to 40. The total amount of siRNA loaded was maintained constant at 0.7 μg/well. The transfection was carried out in the absence of serum. The cells were allowed to incubate at 37° C. in the presence of complexes for 4 h in a CO2 incubator, followed by replacement of 1 ml of RPMI 1640 containing 10% FBS. Thereafter, the cells were incubated at 37° C. for an additional 24 h. […]
The amount of mouse VEGF produced in medium was determined using a mouse VEGF ELISA kit (R&D Systems Inc., Minneapolis, Minn.) according to the recommendation of the manufacturer. […] The enzymatic reaction was stopped by adding 100 μl of stop solution to the wells, and absorbance was determined by spectrophotometry at 450 nm. The VEGF concentration in the cell supernatant samples was calculated based on the standard curve.
The inhibitory effect was evaluated from the relative silencing of the VEGF assayed by ELISA.

With “scVEGF: scrambled VEGF siRNA, SEQ ID NO:3 and SEQ ID NO:4; in b74 tested as complex with bPEI (chain 1 GAUAGCAAUGACGAAUGCGUATT; chain 2 UACGCAUUCGUCAUUGCUAUCTT; chemistry not given here)” the “silencing of VEGF expression (ELISA)” value was “no effect”.
